Measured values taken from PubChem BioAssay (NCI).
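Results reflect a 48-hour exposure of cells in 96-well plates to compound at five concentrations. TGI: concentration producing complete growth inhibition.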

Experiments:
Assay in all cases: NCI tumour cell line growth inhibition, 48 h
[1] = system: LOX IMVI melanoma
[2] = system: NCI-H226 lung
[3] = system: CCRF-CEM leukemia
[4] = system: SNB-75 CNS
[5] = system: PC-3 prostate
[6] = system: SR leukemia
[7] = system: KM12 colon
[8] = system: SW-620 colon
[9] = system: EKVX NSCLC
[10] = system: RXF 393 renal
[11] = system: MALME-3M melanoma
[12] = system: HOP-92 NSCLC
[13] = system: HCT-116 colon
[14] = system: NCI-H23 lung
[15] = system: CAKI-1 renal
[16] = system: BT-549 breast
[17] = system: OVCAR-8 ovarian
[18] = system: DU-145 prostate
[19] = system: OVCAR-4 ovarian
[20] = system: MDA-MB-231 breast
[21] = system: HL-60(TB) leukemia
[22] = system: M14 melanoma
[23] = system: T-47D breast
[24] = system: HT29 colon
[25] = system: TK-10 renal
[26] = system: ACHN renal
[27] = system: IGROV1 ovarian
[28] = system: NCI/ADR-RES ovarian
[29] = system: A549 NSCLC
[30] = system: RPMI-8226 leukemia
[31] = system: SNB-19 CNS
[32] = system: NCI-H522 lung
[33] = system: HOP-62 NSCLC
[34] = system: SK-MEL-28 melanoma
[35] = system: NCI-H460 lung
[36] = system: MDA-N
[37] = system: COLO 205 colon
[38] = system: HCT-15 colon
[39] = system: HS 578T breast
[40] = system: UO-31 renal
[41] = system: SK-OV-3 ovarian
[42] = system: OVCAR-5 ovarian
[43] = system: UACC-257 melanoma
[44] = system: MCF7 breast
[45] = system: SF-268 CNS
[46] = system: UACC-62 melanoma
[47] = system: MOLT-4 leukemia
[48] = system: MDA-MB-435
[49] = system: 786-0 renal
[50] = system: SF-295 CNS
[51] = system: SK-MEL-5 melanoma
[52] = system: HCC-2998 colon
[53] = system: K-562 leukemia
[54] = system: SF-539 CNS
[55] = system: A498 renal
[56] = system: SN12C renal
[57] = system: OVCAR-3 ovarian
[58] = system: U251 CNS
[59] = system: SK-MEL-2 melanoma

Measured: TGI

N#Cc1nc(-c2ccco2)oc1N
not listed: [55] | [56] | [57] | [58] | [59]
> 10 µM: all other assays above

CCOC(=O)/C=C/CCO[Si](C)(C)C(C)(C)C
not listed: [21] | [22]
> 100 µM: all other assays above
